The text below walks through data of paper PMC13253105, “Chemical inhibition of a CBASS anti-bacteriophage defense” (iScience, 2026).

Read-outs that look alike come from different tables or passages of the source. Where a SMILES comes first, the peptide text is derived from it. The star is where a group is joined. Cbz = O=C(OCc1ccccc1)*; Bn = c1ccc(C*)cc1 Bounds are passed on as bounds.

For orientation: IC50 means the concentration at which inhibition is half-maximal.

For experiment [1], the system named is PsCap5 in E. coli BL21 (DE3) cells. It is filed as cell-based.
Method: The same E. coli BL21 (DE3) cells carrying the PsCap5 expression plasmid from above were grown in LB medium with 50 μg/mL kanamycin at 37°C with 220 rpm shaking to an OD600 of ∼0.6 (1 cm pathlength). […] The bacterial cultures were then serially diluted from 10-1 to 10−6, and 5 μL of each was spotted onto LB agar petri dishes supplemented with kanamycin. After overnight incubation, the plates were photographed and colonies formed by viable cells were counted.
For a further experiment, the target named is PsCap5 (Pseudomonas syringae pv. actinidiae, UniProt A0A2P0QGK5). Briefly: biochemical. Conditions: for inhibition of PsCap5 in rescreening of the compound library: normalized DNA band intensity, threshold 0.25.
For another experiment, the target named is LlCap5 (Lactococcus cremoris, UniProt A0A1E7G0A2). Briefly: biochemical. Details: species or system Lactococcus lactis.
The target of a further experiment is DpnI (Streptococcus pneumoniae serotype 4, UniProt P0A459). In kind it is biochemical. Conditions: 1 μL 100 μM inhibitor 20 in 10 μL buffer.
For the next experiment, the target named is Cas9 (Streptococcus pyogenes serotype M1, UniProt Q99ZW2). It is filed as biochemical. Conditions: inhibitor 20 (100 µM).
Chain of Cas9 (Q99ZW2 whole entry, looked up): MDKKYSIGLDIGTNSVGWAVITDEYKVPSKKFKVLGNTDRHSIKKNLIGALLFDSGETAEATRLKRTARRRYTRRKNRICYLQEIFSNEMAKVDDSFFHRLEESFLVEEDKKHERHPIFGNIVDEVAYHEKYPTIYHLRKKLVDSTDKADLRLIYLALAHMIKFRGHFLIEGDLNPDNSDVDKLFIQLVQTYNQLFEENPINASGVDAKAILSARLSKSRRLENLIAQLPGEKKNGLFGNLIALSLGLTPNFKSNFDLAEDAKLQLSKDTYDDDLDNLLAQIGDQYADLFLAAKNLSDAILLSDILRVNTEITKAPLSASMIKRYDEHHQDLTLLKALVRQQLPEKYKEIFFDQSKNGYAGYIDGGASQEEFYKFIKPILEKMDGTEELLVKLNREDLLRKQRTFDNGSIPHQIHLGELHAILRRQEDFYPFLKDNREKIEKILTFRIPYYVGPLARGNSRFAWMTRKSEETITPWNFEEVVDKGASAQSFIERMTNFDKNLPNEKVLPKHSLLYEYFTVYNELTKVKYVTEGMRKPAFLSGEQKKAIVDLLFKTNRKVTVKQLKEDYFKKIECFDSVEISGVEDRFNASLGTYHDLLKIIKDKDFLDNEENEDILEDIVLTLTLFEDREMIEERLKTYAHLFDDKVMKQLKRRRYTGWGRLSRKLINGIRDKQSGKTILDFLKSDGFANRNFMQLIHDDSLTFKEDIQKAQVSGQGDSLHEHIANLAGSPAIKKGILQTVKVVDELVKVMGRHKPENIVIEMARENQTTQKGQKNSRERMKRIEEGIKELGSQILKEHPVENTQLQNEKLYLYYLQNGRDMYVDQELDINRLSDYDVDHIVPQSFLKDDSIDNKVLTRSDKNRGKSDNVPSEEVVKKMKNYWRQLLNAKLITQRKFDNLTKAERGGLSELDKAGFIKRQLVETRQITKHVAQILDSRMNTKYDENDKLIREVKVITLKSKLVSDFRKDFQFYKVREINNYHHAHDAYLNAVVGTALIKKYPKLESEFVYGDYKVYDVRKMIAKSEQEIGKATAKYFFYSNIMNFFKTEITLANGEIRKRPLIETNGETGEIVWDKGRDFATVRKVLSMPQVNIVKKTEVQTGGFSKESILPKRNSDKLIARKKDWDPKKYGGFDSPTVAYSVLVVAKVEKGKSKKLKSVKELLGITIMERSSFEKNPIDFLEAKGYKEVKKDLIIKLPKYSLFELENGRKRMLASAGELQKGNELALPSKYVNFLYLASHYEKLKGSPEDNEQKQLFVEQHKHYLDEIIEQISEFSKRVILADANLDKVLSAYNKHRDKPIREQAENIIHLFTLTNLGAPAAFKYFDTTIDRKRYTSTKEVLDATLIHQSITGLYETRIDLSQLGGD

Chain of LlCap5 (A0A1E7G0A2 1-385): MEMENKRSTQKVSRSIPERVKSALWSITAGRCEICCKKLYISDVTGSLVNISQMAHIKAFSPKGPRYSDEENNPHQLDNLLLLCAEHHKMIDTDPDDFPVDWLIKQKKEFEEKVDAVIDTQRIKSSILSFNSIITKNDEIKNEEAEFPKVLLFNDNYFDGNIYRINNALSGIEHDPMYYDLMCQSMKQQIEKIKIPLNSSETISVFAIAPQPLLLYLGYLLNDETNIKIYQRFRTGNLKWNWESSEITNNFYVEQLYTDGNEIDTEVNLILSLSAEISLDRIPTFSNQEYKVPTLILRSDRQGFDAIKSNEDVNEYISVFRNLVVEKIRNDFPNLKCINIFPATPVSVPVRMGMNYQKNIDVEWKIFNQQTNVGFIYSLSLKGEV
Chain of PsCap5 (A0A2P0QGK5 10-397 limits assumed): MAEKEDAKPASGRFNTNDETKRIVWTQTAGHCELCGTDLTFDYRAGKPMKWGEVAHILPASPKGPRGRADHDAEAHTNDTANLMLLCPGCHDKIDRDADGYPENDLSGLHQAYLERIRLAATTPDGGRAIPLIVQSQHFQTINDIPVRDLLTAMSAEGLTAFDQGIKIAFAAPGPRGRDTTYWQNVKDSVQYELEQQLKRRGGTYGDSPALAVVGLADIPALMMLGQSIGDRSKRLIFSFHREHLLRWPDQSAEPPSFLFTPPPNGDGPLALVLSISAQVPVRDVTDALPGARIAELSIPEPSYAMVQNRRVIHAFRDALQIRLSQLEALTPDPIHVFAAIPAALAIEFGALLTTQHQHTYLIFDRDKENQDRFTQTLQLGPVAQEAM
Chain of DpnI (P0A459 whole entry, looked up): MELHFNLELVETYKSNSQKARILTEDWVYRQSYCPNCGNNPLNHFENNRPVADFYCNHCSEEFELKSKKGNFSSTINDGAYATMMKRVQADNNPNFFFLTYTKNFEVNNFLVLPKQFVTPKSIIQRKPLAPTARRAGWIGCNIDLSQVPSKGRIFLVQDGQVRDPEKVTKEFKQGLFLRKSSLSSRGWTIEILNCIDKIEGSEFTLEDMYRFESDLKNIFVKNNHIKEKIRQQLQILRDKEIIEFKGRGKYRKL

With 3′,2′-cGAMP [reference compound], the “bacterial growth of E. coli carrying PsCap5 plasmid after extrinsic addition of activating ligand” value in experiment [1] is recorded as “severe restriction of bacterial growth”.
For `NS(=O)(=O)c1ccc(CCNC(=O)CCCn2c(SCc3cc(=O)n4cc(Br)ccc4n3)nc3ccsc3c2=O)cc1` [Compound 2], the “inhibition of PsCap5 in rescreening of the compound library” value (shortened to “inhibition of PsCap5”) at PsCap5 is “did not noticeably inhibit PsCap5”. The molecule also displayed a half-inhibitory concentration (IC50) at LlCap5 of 230 ± 10 µM.
For `NS(=O)(=O)c1ccc(CCNC(=O)CSc2nc3ccccc3c(=O)n2Cn2c(SCC(=O)NCCc3ccc(S(N)(=O)=O)cc3)nc3ccccc3c2=O)cc1` [Compound 4], the IC50 on PsCap5 (read-out: IC50 against PsCap5, 50 nM PsCap5, 10 nM 3′,2′-cGAMP, 37°C 15 min, ±S.E.M. of biological triplicates) stood at 11 ± 1 µM. Moreover, the “rescue of E. coli from cGAMP-Cap5-induced toxicity” value in experiment [1] is on record as “failed to rescue”. Moreover, at LlCap5 (normalized DNA band intensity, threshold for activity 0.4), the “inhibition of LlCap5 in biochemical screening” value is “inactive against LlCap5”.
Turning to `O=C(CCN1C(=O)c2ccccc2C1=O)NCCCCCCNC(=O)CCN1C(=O)c2ccccc2C1=O` [Compound 19], the “inhibition of PsCap5” value at PsCap5 was “did not noticeably inhibit PsCap5”. On LlCap5, this molecule gave a 50% inhibitory concentration (IC50) of more than 100 µM.
Take `Cc1ccc(CNC(=O)c2ccc(Cn3c(=O)c4ccccc4n(CC(=O)NCc4ccco4)c3=O)cc2)cc1` [Compound 20]: the “inhibition of DpnI” value on DpnI was “failed to inhibit”. Besides, the “inhibition of Cas9” value against Cas9 is given as “failed to inhibit Cas9”. Further, the half-inhibitory concentration (IC50) against PsCap5 came out at 24 ± 8 µM; at LlCap5 it was 120 ± 60 µM. The “recovery of viable cells (bacterial population)” value in experiment [1] (0.33 mM compound 20, 0.2 mM 3′,2′-cGAMP, 37°C 3 h) is approximately 100 fold.
In the case of `COC(=O)C(NC(=O)C(Cc1ccc(OCc2ccccc2)cc1)NC(=O)C(Cc1ccccc1)NC(=O)CNC(=O)OCc1ccccc1)C(C)O` (stereo not shown) [Compound 22] (Cbz-GFY(Bn)T-OMe; configuration not given here), the “inhibition of PsCap5” value on PsCap5 is given as “did not noticeably inhibit PsCap5”. For the same molecule, the IC50 at LlCap5 was 58 ± 16 µM.
As to `Cn1c(=O)[nH]c(=O)c2c1nc(SCCSc1nc3c(c(=O)[nH]c(=O)n3C)n1CCc1ccccc1)n2CCc1ccccc1` [Compound 36], the results for the 50% inhibitory concentration (IC50) on PsCap5 and on LlCap5 were 100 ± 20 µM and 140 ± 20 µM, respectively.
`NC(=O)[C@H](Cc1ccc(O)cc1)NC(=O)[C@H](CCCCNC(=O)OCc1ccccc1)NC(=O)OCc1ccccc1` [Compound 37]: the half-inhibitory concentration (IC50) at PsCap5 is 150 ± 40 µM; against LlCap5 it was 260 ± 70 µM.
